According to paper PMC11791039, “A split intein and split luciferase-coupled system for detecting protein-protein interactions” (Molecular Systems Biology, 2024):
“And” between values parts separate entries of the source, which are not always exact repeats. Equal entries are not always repeated.

Experiments:
Format in all cases: cell-based
[1] = biological target: T1, HRAS/RBD (Homo sapiens, UniProt P01112); assay: SIMPL2 assay HRAS/RBD; conditions: 16 h; for normalized SIMPL2 signal HRAS/RBD (Fig. 3A source data): replicates 1-3
T1 construct: IC-β9 (GP41-1 split intein C fragment + tNLuc β9 peptide) (N); FLAG; expressed in transfected cells
T1 sequence (P01112 whole entry, the tested form may be a part): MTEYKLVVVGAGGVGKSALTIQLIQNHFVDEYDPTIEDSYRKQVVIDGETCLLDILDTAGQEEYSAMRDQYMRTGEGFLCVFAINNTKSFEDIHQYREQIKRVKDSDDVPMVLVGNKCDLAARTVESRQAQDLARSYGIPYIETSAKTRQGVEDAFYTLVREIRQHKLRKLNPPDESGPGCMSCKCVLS

[2] = biological target: T2, EGFR(WT)/SHC1 (Homo sapiens, UniProt P00533); assay: SIMPL2 assay EGFR(WT)/SHC1; conditions: for normalized SIMPL2 signal EGFR/SHC1 (Fig. 3A source data): 16 h, replicates 1-3
T2 construct: β10-IN (tNLuc β10 peptide + GP41-1 split intein N fragment) (C); V5; expressed in transfected cells
T2 sequence (P00533 25-1210): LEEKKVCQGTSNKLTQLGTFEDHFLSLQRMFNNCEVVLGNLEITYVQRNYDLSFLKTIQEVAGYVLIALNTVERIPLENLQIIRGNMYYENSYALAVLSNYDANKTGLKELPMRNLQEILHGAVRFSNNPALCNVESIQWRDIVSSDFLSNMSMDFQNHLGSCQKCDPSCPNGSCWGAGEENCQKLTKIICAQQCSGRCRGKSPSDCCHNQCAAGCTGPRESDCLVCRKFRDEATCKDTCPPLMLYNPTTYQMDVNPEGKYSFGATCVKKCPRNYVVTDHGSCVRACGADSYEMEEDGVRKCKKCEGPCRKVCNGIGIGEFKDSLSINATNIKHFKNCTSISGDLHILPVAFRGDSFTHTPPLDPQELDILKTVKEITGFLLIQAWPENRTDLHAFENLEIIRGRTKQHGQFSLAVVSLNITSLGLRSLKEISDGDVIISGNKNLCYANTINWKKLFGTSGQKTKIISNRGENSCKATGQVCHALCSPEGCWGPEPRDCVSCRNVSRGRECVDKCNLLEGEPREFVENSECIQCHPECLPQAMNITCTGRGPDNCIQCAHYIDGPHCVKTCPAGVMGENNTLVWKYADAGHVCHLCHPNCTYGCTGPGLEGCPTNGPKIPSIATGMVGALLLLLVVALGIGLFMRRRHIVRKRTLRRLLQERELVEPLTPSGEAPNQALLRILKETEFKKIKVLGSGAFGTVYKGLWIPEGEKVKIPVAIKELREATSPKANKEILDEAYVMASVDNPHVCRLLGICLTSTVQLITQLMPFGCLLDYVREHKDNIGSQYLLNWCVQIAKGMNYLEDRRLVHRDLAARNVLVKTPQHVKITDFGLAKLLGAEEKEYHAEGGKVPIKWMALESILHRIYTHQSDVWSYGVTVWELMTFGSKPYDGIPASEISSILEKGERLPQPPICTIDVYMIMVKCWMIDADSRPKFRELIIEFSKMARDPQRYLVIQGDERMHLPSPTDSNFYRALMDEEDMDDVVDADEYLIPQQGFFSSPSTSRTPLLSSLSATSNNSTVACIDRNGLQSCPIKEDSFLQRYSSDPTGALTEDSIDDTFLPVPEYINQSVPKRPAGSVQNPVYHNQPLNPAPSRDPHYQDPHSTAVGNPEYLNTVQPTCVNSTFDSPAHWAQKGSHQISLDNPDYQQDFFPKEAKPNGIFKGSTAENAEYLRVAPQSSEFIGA

[3] = biological target: T3, KRAS(G12C)/RBD (Homo sapiens, UniProt P01116, G12C); assay: SIMPL2 assay KRAS(G12C)/RBD; conditions: for SIMPL2 signal, KRAS(G12C)/RBD (Fig. 4A): replicates 1-4
T3 construct: IC-β9 (GP41-1 split intein C fragment + tNLuc β9 peptide) (N); FLAG; expressed in transfected cells

[4] = biological target: T4, MDM2/MDM4 interaction (Homo sapiens, UniProt O15151+Q00987); assay: SIMPL2 assay MDM2/MDM4; conditions: for SIMPL2 signal, MDM2/MDM4 (Fig. 4A): replicates 1-4
T4 construct: β10-IN (tNLuc β10 peptide + GP41-1 split intein N fragment) (C); V5; IC-β9 (GP41-1 split intein C fragment + tNLuc β9 peptide) (N); FLAG; expressed in transfected cells
T4 sequence (Q00987 whole entry, the tested form may be a part): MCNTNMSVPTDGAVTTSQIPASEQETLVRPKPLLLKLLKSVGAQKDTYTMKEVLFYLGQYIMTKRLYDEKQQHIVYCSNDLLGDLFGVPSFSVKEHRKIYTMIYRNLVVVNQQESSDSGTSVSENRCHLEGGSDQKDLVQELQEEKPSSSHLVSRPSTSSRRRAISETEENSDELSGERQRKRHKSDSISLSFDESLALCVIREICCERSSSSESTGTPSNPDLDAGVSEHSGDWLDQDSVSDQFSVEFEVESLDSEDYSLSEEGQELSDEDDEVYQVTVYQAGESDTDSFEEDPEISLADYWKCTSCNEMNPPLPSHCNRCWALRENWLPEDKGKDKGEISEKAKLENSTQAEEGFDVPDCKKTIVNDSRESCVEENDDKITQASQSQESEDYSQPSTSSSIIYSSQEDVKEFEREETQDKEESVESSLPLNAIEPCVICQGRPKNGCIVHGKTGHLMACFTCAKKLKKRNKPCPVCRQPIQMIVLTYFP
T4 sequence (O15151 whole entry, the tested form may be a part): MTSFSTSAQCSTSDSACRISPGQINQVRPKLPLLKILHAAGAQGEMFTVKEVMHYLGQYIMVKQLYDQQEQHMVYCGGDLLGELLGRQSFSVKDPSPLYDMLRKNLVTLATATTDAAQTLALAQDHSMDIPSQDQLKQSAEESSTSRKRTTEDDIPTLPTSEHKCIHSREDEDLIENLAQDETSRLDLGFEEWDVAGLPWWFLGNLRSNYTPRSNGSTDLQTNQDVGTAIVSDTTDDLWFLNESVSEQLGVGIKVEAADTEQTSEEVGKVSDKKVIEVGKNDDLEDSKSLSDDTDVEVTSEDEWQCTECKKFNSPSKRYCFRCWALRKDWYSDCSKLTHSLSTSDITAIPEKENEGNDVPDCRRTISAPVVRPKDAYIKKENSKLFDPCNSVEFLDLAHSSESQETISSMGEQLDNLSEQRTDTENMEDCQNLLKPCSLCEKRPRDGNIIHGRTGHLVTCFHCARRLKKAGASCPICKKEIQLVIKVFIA
Method: We next tested the system with molecular glues, which are small molecule compounds that induce target protein interaction. […] To clarify, the two protein molecules are anchored together through a pair of dimerized RO-5963 molecules. […] Therefore, its binding kinetics display a monophasic change.
Figure 4 Evaluation of SIMPL2 as a drug discovery tool using molecular glue and PROTACs. […] Samples were measured and normalized as described in Materials and Methods. […] The cells were then subjected to SIMPL2 luciferase measurement, and the raw values are plotted.
Stable cells of target protein pair were created using Cas9 CRISPR. To characterize PPI modulators, the cells were seeded in 384 well plate (10,000 cells/well) and incubated for 5 h. […] Average signal of wells without either deoxycycline or compound treatment was used as blank or ‘floor’ signal (SF). The average signal of wells with deoxycycline treatment but without compound treatment was used as maximal interaction or ‘ceiling’ (SC). SIMPL2 reading of each sample (Ssample) was normalized according to the formula S^*sample = (Ssample– SF)/(SC– SF) x 100%, in which S^*sample stands for normalized signal. The normalized data of inhibitor experiments were fitted into a four-parameter inhibitor-response model.

C=CC(=O)N1CCN(c2nc(=O)n(-c3c(C)ccnc3C(C)C)c3nc(-c4c(O)cccc4F)c(F)cc23)[C@@H](C)C1 [sotorasib, Sotorasib]
normalized SIMPL2 signal HRAS/RBD (Fig. 3A source data) ([1]; AMG510 0.013717 uM): 95.6644% and 96.1454% and 108.19%
normalized SIMPL2 signal HRAS/RBD (Fig. 3A source data) ([1]; AMG510 0.041152 uM): 82.7154% and 124.68% and 97.6847%
normalized SIMPL2 signal HRAS/RBD (Fig. 3A source data) ([1]; AMG510 0.37037 uM): 80.291% and 76.1158% and 82.6769%
normalized SIMPL2 signal HRAS/RBD (Fig. 3A source data) ([1]; AMG510 1.11111 uM): 79.0981% and 97.1459% and 96.2801%
normalized SIMPL2 signal HRAS/RBD (Fig. 3A source data) ([1]; AMG510 3.33333 uM): 91.6238% and 112.808% and 96.8766%
normalized SIMPL2 signal HRAS/RBD (Fig. 3A source data) ([1]; AMG510 10 uM): 106.247% and 100.629% and 127.854%
inhibition of HRAS/RBD interaction signal ([1]; control cells): no significant inhibition
normalized SIMPL2 signal EGFR/SHC1 (Fig. 3A source data) ([2]; AMG510 0.013717 uM): 102.175% and 103.017% and 94.8079%
normalized SIMPL2 signal EGFR/SHC1 (Fig. 3A source data) ([2]; AMG510 0.041152 uM): 78.9251% and 82.2027% and 70.7463%
normalized SIMPL2 signal EGFR/SHC1 (Fig. 3A source data) ([2]; AMG510 0.37037 uM): 78.0061% and 80.6558% and 79.5224%
normalized SIMPL2 signal EGFR/SHC1 (Fig. 3A source data) ([2]; AMG510 1.11111 uM): 94.2258% and 88.5129% and 91.668%
normalized SIMPL2 signal EGFR/SHC1 (Fig. 3A source data) ([2]; AMG510 3.33333 uM): 78.7566% and 76.4592% and 70.5625%
normalized SIMPL2 signal EGFR/SHC1 (Fig. 3A source data) ([2]; AMG510 10 uM): 53.0256% and 58.9069% and 63.3333%
inhibition of EGFR/SHC1 signal at high sotorasib concentrations (reviewer's reading of Fig. 3A) ([2]; peer review file, authors confirm for EGFR/SHC1 only): 40-50%

RO-5963
SIMPL2 signal, KRAS(G12C)/RBD (Fig. 4A) ([3]; RO-5963 0.013717 uM): 109.968 and 129.491
SIMPL2 signal, KRAS(G12C)/RBD (Fig. 4A) ([3]; RO-5963 0.041152 uM): 115.427 and 110.7 and 113.906 and 96.9775
SIMPL2 signal, KRAS(G12C)/RBD (Fig. 4A) ([3]; RO-5963 0.37037 uM): 127.273 and 113.795 and 114.951
SIMPL2 signal, KRAS(G12C)/RBD (Fig. 4A) ([3]; RO-5963 1.11111 uM): 136.524 and 105.719 and 127.623 and 137.333
SIMPL2 signal, KRAS(G12C)/RBD (Fig. 4A) ([3]; RO-5963 3.33333 uM): 110.236 and 106.312 and 130.946
SIMPL2 signal, KRAS(G12C)/RBD (Fig. 4A) ([3]; RO-5963 10 uM): 136.758 and 112.554 and 138.094 and 146.423
effect on KRAS(G12C)/RBD control interaction signal ([3]; doxycycline + compound 16 h, tested concentration range): not affected
concentration above which MDM2/MDM4 interaction declines (hook effect) ([4]; 16 h with doxycycline): above 3 μM
concentration above which MDM2/MDM4 interaction was observed ([4]; 16 h with doxycycline): above 0.3 μM
concentration of peak MDM2/MDM4 interaction ([4]; 16 h with doxycycline): 3 µM
SIMPL2 signal, MDM2/MDM4 (Fig. 4A) ([4]; RO-5963 0.013717 uM): 98.5373 and 90.6113 and 85.0033 and 102.575
SIMPL2 signal, MDM2/MDM4 (Fig. 4A) ([4]; RO-5963 0.041152 uM): 93.004 and 86.0501 and 89.041 and 96.2193
SIMPL2 signal, MDM2/MDM4 (Fig. 4A) ([4]; RO-5963 0.37037 uM): 155.514 and 142.28 and 150.579 and 141.083
SIMPL2 signal, MDM2/MDM4 (Fig. 4A) ([4]; RO-5963 1.11111 uM): 502.238 and 458.421 and 548.523 and 430.606
SIMPL2 signal, MDM2/MDM4 (Fig. 4A) ([4]; RO-5963 3.33333 uM): 934.354 and 877.9 and 842.009 and 825.259
SIMPL2 signal, MDM2/MDM4 (Fig. 4A) ([4]; RO-5963 10 uM): 374.451 and 365.777 and 368.394 and 378.937
